From US6395473B1, “Adenoviral based promoter assay” (Merck & Co., Inc., priority 1998, dated 2002)

Test system: rat glutathione S-transferase Ya subunit promoter
Test: CAT reporter activity induction in HepG2 cells carrying the rat GST Ya promoter/CAT construct
Type: cell-based
Conditions: HepG2 cells infected with pdelE1sp1B-1.6CAT, a-NF 50 mM
From the text: DNA coding for a promoter/reporter rat glutathione S-transferase Ya subunit 1.6 kb promoter sequence positioned upstream of the chloramphenicol acetyltransferase reporter gene was cloned into the adenovirus shuttle vector pdelE1sp1B, whereby the E1B genome of the adenovirus is deleted and replaced. Successful construction of the shuttle vector, pdelE1sp1B-1.6CAT was verified by both restriction mapping and by sequencing across the 5′- and 3′-ends of the cloning sites. In addition, the shuttle vector was tested functionally in HepG2 cells for regulation of expression of CAT by a-napthoflavone ([…]).
HepG2 cells were seeded in 12- or 24-well plates at a density of 60-70% confluence. Cells were infected the following day with Ad1.6CAT (9.7×10^8 pfu/ml) at an MOI of 5 for 1 h. At the end of the infection period the virus was removed, the cells were rinsed once with PBS, and fresh media was placed on the cells. […]
HepG2 cells were harvested at various time points following induction of CAT expression. […] CAT activity determined by the method of Gorman et al. using 10 ug of protein for 60 minute at 37° C. Acetylated products of chloramphenicol were extracted with mixed xylenes and quantitated by liquid scintillation counting. Results were expressed as fold induction versus control.

- Induction of CAT activity (fold induction versus control) (after 24 hours): approximately 45 fold
- Induction of CAT activity (fold induction versus control) (after 48 hours): approximately 85 fold
Structure (SMILES): O=c1cc(-c2ccccc2)oc2c1ccc1ccccc12 [a-NF, a-napthoflavone]
